Laboratory results: patent publication US10414713B2, “Fatty acid compound, preparation method therefor and use therefor” (SHANGHAI INSTITUTE OF MATERIA MEDICA, CHINESE ACADEMY OF …, priority 2016, dated 2019)

Tested on: primary hepatocytes of C57bl/6j mice
Experiment: Glucose output in primary hepatocytes of C57bl/6j mice
Type: cell-based
Settings: Hepatocyte, 6 hours, mouse primary hepatocytes, corrected by protein concentration, FIG. 3, read-out: gluconeogenesis inhibition (glucose output) relative to the negative control
Experimental: 2. To Investigate the Effect of Compounds on Glucose Output in Primary Hepatocytes of C57bl/6j Mice.
(1) Test purpose: To test whether the fatty acid compounds can inhibit hepatocyte glucose output on primary hepatocytes of C57bl/6j mice.
(2) Experimental principle: Small molecule compounds act on mouse primary hepatocytes, inhibit gluconeogenesis, and then affect the glucose output of cells into the medium. The effect of compounds on gluconeogenesis is evaluated by detecting the glucose concentration in the medium after the treatment of different compounds.
(3) Detection reagent: The glucose detection kit was purchased from Shanghai Mind Bioengineering Co., Ltd.
1) the primary hepatocytes of C57bl/6j mice were isolated and inoculated into a 24-well plate at a density of 300,000 per mL. After grew adhering to the wall for 6 hours, they were replaced on serumfree highsugar medium for 12 hours. Compounds 1 to 30 prepared by the present invention (in 1‰ DMSO, 50 μM) were separately added to treat for 6 hours (1‰ DMSO as a negative control). The medium was gently mixed, 50 μL of supernatant was taken from every well, and glucose concentration was measured by a glucose oxidase assay kit.
2) The medium was discarded. The cells was washed with PBS, spin dried, added 200 μL of 250 mM sodium hydroxide solution. […] The protein concentration was determined using coomassie blue staining. […]

With `CCC(C)(CCCCCCC=CCCCCCCCC(C)(CC)C(=O)O)C(=O)O` (stereo not shown) [Compound 20] the inhibition at 50 µM was > 50%.
